# In publication PMC8614864, “Bioengineered System for High Throughput Screening of Kv1 Ion Channel Blockers” (Bioengineering, 2021):
# Where two headings read alike, the source gives them in different places. Ends that are not written are not given here. linker L1 (45 aa) = not defined here
# T1: KcsA-Kv1.3 hybrid potassium channel tagged with a red fluorescent protein (TagRFP) (Homotetramer. Turret swap limits are not printed: taken from the known KcsA-Kv1.3 chimera design (ref. 8), KcsA 52-64 replaced by the gap-free aligned Kv1.3 segment (the same stretch is expected in mo))
# T1 chain: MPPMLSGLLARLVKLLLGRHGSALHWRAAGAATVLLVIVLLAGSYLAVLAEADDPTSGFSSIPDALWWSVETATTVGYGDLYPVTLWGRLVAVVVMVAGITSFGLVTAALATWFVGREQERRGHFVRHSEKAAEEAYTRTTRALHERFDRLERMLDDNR
# What was measured:
# Kv1 channels = conditions: ref 17; cited from earlier work
# From the text: Consequently, our flow cytometry approach can be used to screen unlabeled small organic blockers for their binding with the external lining of the pore. If necessary, FP-peptide blockers can be substituted in the presented assay by small fluorescently labeled ligands, and their affinities can be estimated by direct titration, using the approach ...
# KcsA-Kv1.3-RFP [1] = experiment: Direct titration of GFP-labeled toxins on spheroplasts by flow cytometry; format: binding
# Procedure: (§1) Spheroplasts were prepared according to the previously developed protocol. Briefly, E. coli cells (BL21 (DE3) strain) transformed with pET28a-KcsA-Kv1.3-RFP plasmid were cultivated in a minimal M9 medium at 37 °C up to OD560 = 0.8, then induced with 50 μM IPTG and further grown for 18 h. Cells were harvested by centrifugation (5000× g, 10 min, 4 °C), incubated in buffer A (10 mM Tris–HCl, pH 8.0, 0.5 m sucrose) containing lysozyme (20 μg/mL) for 7 min on ice, then diluted twofold with buffer B (10 mM Tris–HCl, pH 8.0, 0.3 mM ethylenediamine tetraacetic acid) and further incubated for 20 min. Then MgCl2 was added to a final concentration of 10 mM to stabilize the spheroplasts. Obtained in this way, the spheroplast suspension has OD560 of about 0.5 and was diluted for binding assay as described further.
# (§2) For ligand binding analysis, a series of ligand dilutions were prepared in 12 × 75 mm flow cytometry test tubes. For this, 45 µL of toxin solution with a ten times higher concentration than the maximal concentration on titration curve was prepared. This solution was serially diluted with 3.16-fold step (13.9 µL of toxin solution + 30 µL buffer). These toxin dilutions were supplemented with 270 µL of spheroplast suspension at 10^6 cells/mL to give 300 µL final reaction mixtures. For analysis of displacement of GFP-labeled toxins by unlabeled toxins, spheroplast suspensions were supplemented with 1.1× concentration of GFP-labeled toxin before mixing with unlabeled toxin dilutions. All dilutions were made in a binding buffer: 0.25 M sucrose, […], 2 mM KCl, 50 mM NaCl, 10 mM MgCl2, 0.2% BSA and 50 mM Tris–HCl, pH 7.5.
# (§3) To ensure equilibrium conditions, we analyzed samples after 90–120 min of incubation without removing toxins. Data acquisition was carried out with FC-500 flow cytometer (Beckman Coulter, Brea, CA, USA) using 488 nm excitation for both GFP and RFP and fluorescence detection with FL1 (505–545 nm) and FL3 (610–630 nm) channels for GFP and RFP, respectively. To minimize background fluorescence, samples were run at low speed that gave approx. 100–500 events/s. Events were triggered by side scatting (SSC) so that RFP-labeled cells constituted approx. 30% of events (Figure 2). Remaining events were also present in the samples of filtered binding buffer without cells, so were likely to be related to system noise (either electronic or optical) but not to the dim spheroplasts.
# (§4) Automated data analysis was performed by a dedicated script after pre-processing with commercial software. The script was available in user-friendly Jupyter notebook format where data were processed stepwise, and user input-output was realized through an internet browser. This script is designed to process multiple datasets at once and can be easily adjusted for someone’s actual needs.
# (§5) Initial preprocessing was done with used FlowJo v10 software (Treestar Inc., Wilmington, DE, USA). This was used for gating on cells by forward and side scatter, followed by gating of RFP-positive events (Figure 1) and exporting of gated data in FCS format. This step was preferable since it allowed one to convert data into a conventional FCS format (our flow cytometer import data in LMD file format) and to filter out off-target events such as system noise, cell debris, clumped and untransfected cells (without Kv1.3-RFP in our case). We also created a script for this preprocessing but found it more complicated and less robust than commercial software.
# Filtered data were processed stepwise by a dedicated script, written in the Python programming language and available as a Jupyter notebook for running either on a local machine or in a kaggle data cloud (https://www.kaggle.com/georgesharonov/fcsgroupfit, accessed and executed on 14 November 2021). Data processing workflow was designed for high throughput analysis by processing all similar data in a single script execution. The processing steps were detailed within the notebook. […]
# KcsA-Kv1.3 = conditions: ref Our Previous Data (Table 1); cited from earlier work
# Procedure: (§6) Table 1 Kd values obtained by direct titration of GFP-toxins or by their displacement with unlabeled ones and their comparison to our previous and literature data. | column: Dissociation Constants, nM * / Our Previous Data || Our approach was evaluated using several Kv1.3 ligands with known dissociation constants. These are unlabeled recombinant channel blockers from scorpion venom, AgTx2, ChTx, KTx and labeled GFP-tagged chimeras AgTx-GFP and ChTx-GFP. […] This is close to the values reported earlier: 0.21 nM for AgTx2-GFP in our system and 1.8–2.6 nM for ChTx (Table 1).
# KcsA-Kv1.3-RFP [2] = experiment: Displacement of GFP-labeled toxins by unlabeled toxins on spheroplasts, flow cytometry; format: binding; conditions: for Kd: displacement of AgTx2-GFP, Cheng-Prusoff, Mean ± SD, read-out: Apparent dissociation constant (Kap)
# Procedure: as §1, §2, §3, §4
# as §5, with “software. […]” for “software.”
# Kv1.3 = conditions: cited from earlier work
# Procedure: as §6, with “Kd or IC50,” for “Dissociation Constants,”, “nM” for “nM *”, “Literature” for “Our Previous”
# [3] = system: hybrid Kv1-KcsA channels expressed in the E. coli membrane; conditions: laser scanning confocal microscopy, competitive binding; cited from earlier work
# From the text: In order to estimate the possibilities and limitations of the assay, the molecular details of blocker interaction with a natural and chimeric channel should be considered. The common feature of the peptide blocker binding is an occlusion of the pore with the side chain of a lysine residue, which is accompanied by the formation of multiple bonds between the peptide and amino acid residues surrounding the pore. Since the pore occlusion is the essential feature of any Kv1-channel blocker interacting with a channel at the extracellular side, the binding sites of peptide blockers and sm ...
# [4] = molecular target: T1, KcsA-Kv1.3 hybrid potassium channel …; experiment: flow cytometry on cells; same direct titration data; conventional analysis: mean or median of the RFP-positive minus the RFP-negative population; no saturation up to 100 nM, approach called inconsistent by the authors; conditions: one partner purified
# [5] = molecular target: T1, KcsA-Kv1.3 hybrid potassium channel …; experiment: flow cytometry on cells; same direct titration data; slope of GFP against RFP by linear fit of all RFP-positive events, one-site fit; conditions: one partner purified
# [6] = molecular target: T1, KcsA-Kv1.3 hybrid potassium channel …; experiment: flow cytometry on cells; conditions: one partner purified
molecule,measurement,setting,value
CC(C)/N=c1\cc2n(-c3ccc(Cl)cc3)c3ccccc3nc-2cc1Nc1ccc(Cl)cc1 [clofazimine],inhibition of Kv1 channels,Kv1 channels,inhibit Kv1 channels from the inside of the cell
"AgTx2-GFP: AgTx2 tagged N-terminally with eGFP, moieties separated by a 45-aa linker L1; fluorescent probe ({eGFP-linker L1 (45 aa)}-GVPINVSCTGSPQCIKPCKDAGMRFGKCMNRKCHCTPK; ends and bridges not checked)","Slope, nonspecific binding","KcsA-Kv1.3-RFP [1]; 1 nM labeled toxin + 100 nM AgTx, fitting of all events",0.49
same,"Slope, nonspecific binding","KcsA-Kv1.3-RFP [1]; 1 nM labeled toxin + 100 nM AgTx, fitting of reduced data",0.23
same,Slope (proportional to occupied receptor fraction),"KcsA-Kv1.3-RFP [1]; 1 nM labeled toxin, fitting of all events",0.88
same,Slope (proportional to occupied receptor fraction),"KcsA-Kv1.3-RFP [1]; 1 nM labeled toxin, fitting of reduced data",0.82
same,"Slope, nonspecific binding","KcsA-Kv1.3-RFP [1]; 10 nM labeled toxin + 100 nM AgTx, fitting of all events",0.54
same,Slope (proportional to occupied receptor fraction),"KcsA-Kv1.3-RFP [1]; 10 nM labeled toxin, fitting of all events",0.95
same,Slope (proportional to occupied receptor fraction),"KcsA-Kv1.3-RFP [1]; 10 nM labeled toxin, fitting of reduced data",0.9
same,Kd,KcsA-Kv1.3,0.21 nM
"CC[C@H](C)[C@@H]1NC(=O)[C@@H]2CSSC[C@@H]3NC(=O)[C@H](CCCCN)NC(=O)[C@H](CCCNC(=N)N)NC(=O)[C@H](CC(N)=O)NC(=O)[C@H](CCSC)NC(=O)[C@H](CSSC[C@H](NC(=O)[C@H](CO)NC(=O)[C@@H](NC(=O)[C@H](CC(N)=O)NC(=O)[C@@H](NC(=O)[C@@H]4CCCN4C(=O)[C@@H](NC(=O)CN)C(C)C)[C@@H](C)CC)C(C)C)C(=O)N[C@@H]([C@@H](C)O)C(=O)NCC(=O)N[C@@H](CO)C(=O)N4CCC[C@H]4C(=O)N[C@@H](CCC(N)=O)C(=O)N2)NC(=O)[C@H](CCCCN)NC(=O)CNC(=O)[C@H](Cc2ccccc2)NC(=O)[C@H](CCCNC(=N)N)NC(=O)[C@H](CCSC)NC(=O)CNC(=O)[C@H](C)NC(=O)[C@H](CC(=O)O)NC(=O)[C@H](CCCCN)NC(=O)[C@H](CSSC[C@@H](C(=O)N[C@H](C(=O)N2CCC[C@H]2C(=O)N[C@@H](CCCCN)C(=O)O)[C@@H](C)O)NC(=O)[C@H](Cc2c[nH]cn2)NC3=O)NC(=O)[C@@H]2CCCN2C(=O)[C@H](CCCCN)NC1=O [AgTx2, agitoxin 2]",inhibition of binding of labeled ligands by excess unlabeled ligand,KcsA-Kv1.3-RFP [2]; 100 nM unlabeled AgTx2,completely inhibited
same,IC50,"KcsA-Kv1.3-RFP [2]; displacement of 1 nM AgTx2-GFP, Figure 4B curve, read-out: IC50 (displacement of 50% of the labeled ligand)",0.7 nM
same,Kd,KcsA-Kv1.3-RFP [2]; n = 2,0.1 ± 0.02 nM
same,fold by which binding constant is lower than that of the labeled variant,KcsA-Kv1.3-RFP [2]; unlabeled toxin vs its GFP-labeled variant,2–4 times
same,Kd or IC50 (literature),Kv1.3; ref 8,6.4 nM
same,Kd or IC50 (literature),Kv1.3; ref 18,0.004 nM
same,Kd or IC50 (literature),Kv1.3; ref 19,0.2 nM
same,Kd,KcsA-Kv1.3,0.21 nM
"CC[C@H](C)[C@H](NC(=O)[C@H](CCC(=O)O)NC(=O)[C@@H](NC(=O)CN)C(C)C)C(=O)N[C@@H](CC(N)=O)C(=O)N[C@H](C(=O)N[C@@H](CCCCN)C(=O)N[C@H]1CSSC[C@@H]2NC(=O)[C@H](CCCCN)NC(=O)CNC(=O)[C@H](Cc3ccccc3)NC(=O)[C@H](CCCNC(=N)N)NC(=O)[C@H](CCSC)NC(=O)CNC(=O)[C@H](C)NC(=O)[C@H](CC(=O)O)NC(=O)[C@H](CCCCN)NC(=O)[C@@H]3CSSC[C@@H](C(=O)N[C@H](C(=O)N4CCC[C@H]4C(=O)N[C@@H](CCCCN)C(=O)O)[C@@H](C)O)NC(=O)[C@H](Cc4c[nH]cn4)NC(=O)[C@H](CSSC[C@H](NC(=O)[C@H](CCC(N)=O)NC(=O)[C@@H]4CCCN4C(=O)[C@H](CO)NC(=O)CNC(=O)[C@H](CO)NC1=O)C(=O)N[C@@H](CC(C)C)C(=O)N[C@@H](CCCCN)C(=O)N1CCC[C@H]1C(=O)N3)NC(=O)[C@H](CCCCN)NC(=O)[C@H](CCCNC(=N)N)NC(=O)[C@H](CC(N)=O)NC(=O)[C@H](CCSC)NC2=O)C(C)C [KTx, kaliotoxin 1]",Kd,KcsA-Kv1.3-RFP [2]; n = 3,0.04 ± 0.02 nM
same,Kd or IC50 (literature),Kv1.3; ref 21,0.65 nM
same,Kd or IC50 (literature),Kv1.3; ref 22,0.02 nM
same,Kd or IC50 (literature),Kv1.3; ref 23,0.1 to 2 nM
same,Kd,KcsA-Kv1.3,0.78 nM
Nc1ccncc1 [4-aminopiridine],inhibition of Kv1 channels,Kv1 channels,inhibit Kv1 channels from the inside of the cell
CC[N+](CC)(CC)CC [tetraethylammonium],competitive ligand for Kv1-KcsA hybrid channels,[3],competitive ligand
"QFTNVSCTTSKECWSVCQRLHNTSRGKCMNKKCRCYS (ligand, also called ChTx-GFP; GFP-L1-ChTx; source: E. coli Rosetta-gami (DE3) pLysS, pET23d-GFP-L1-ChTx, purified (Ni-NTA, PD-10 desalting); not shown: eGFP (with the linker L1), N-terminal, kept) [charybdotoxin tagged N-terminally with eGFP]","Kd by the conventional mean/median analysis, which the authors reject",[4],32 nM
same,Kd,[5],0.86 nM
"GVPINVSCTGSPQCIKPCKDAGMRFGKCMNRKCHCTPK (ligand, The analogous ChTx-GFP was purified on Ni-NTA, so a His tag is likely here too; also called AgTx2-GFP; AgTx-GFP; source: design and production described earlier [14]; (plasmid pET23d-GFP-L1-AgTx2); not shown: eGFP (with the 45-aa linker L1), N-terminal, kept) [agitoxin 2 tagged N-terminally with eGFP]","Kd by the conventional mean/median analysis, which the authors reject",[4],6 nM
same,Kd,[6],0.2 nM
"GVPINVSCTGSPQCIKPCKDAGMRFGKCMNRKCHCTPK (also called AgTx2; source: recombinant, produced as described earlier [12] from plasmid pET23d-MalE-L1-AgTx2) [agitoxin 2]",Kd,[6],0.1 nM
"GVEINVKCSGSPQCLKPCKDAGMRFGKCMNRKCHCTPK (also called KTx; source: recombinant, produced as described earlier [12] from plasmid pET23d-MalE-L1-KTx) [kaliotoxin 1]",Kd,[6],0.04 nM
